In test [1] the target is Gamma-aminobutyric acid receptor subunit alpha-4 (Rattus norvegicus, UniProt P28471).
For test [2], the target named is Gamma-aminobutyric acid receptor subunit alpha-6 (Rattus norvegicus, UniProt P30191).

A value given as a limit tells only on which side of the number the result lay.

Sequence of Gamma-aminobutyric acid receptor subunit alpha-6 (P30191 whole entry): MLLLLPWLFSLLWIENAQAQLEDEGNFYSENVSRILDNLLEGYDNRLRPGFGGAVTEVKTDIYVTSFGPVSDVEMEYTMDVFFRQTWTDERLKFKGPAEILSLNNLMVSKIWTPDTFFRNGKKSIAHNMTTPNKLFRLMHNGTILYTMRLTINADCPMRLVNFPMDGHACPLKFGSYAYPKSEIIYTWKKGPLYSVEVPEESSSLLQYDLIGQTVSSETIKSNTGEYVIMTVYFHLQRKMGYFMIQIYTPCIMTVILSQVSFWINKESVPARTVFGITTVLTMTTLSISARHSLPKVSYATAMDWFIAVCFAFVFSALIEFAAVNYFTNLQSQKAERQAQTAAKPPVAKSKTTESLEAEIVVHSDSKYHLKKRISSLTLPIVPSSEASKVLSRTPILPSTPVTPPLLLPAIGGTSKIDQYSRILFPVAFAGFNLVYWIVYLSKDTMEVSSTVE
Sequence of Gamma-aminobutyric acid receptor subunit alpha-4 (P28471 whole entry): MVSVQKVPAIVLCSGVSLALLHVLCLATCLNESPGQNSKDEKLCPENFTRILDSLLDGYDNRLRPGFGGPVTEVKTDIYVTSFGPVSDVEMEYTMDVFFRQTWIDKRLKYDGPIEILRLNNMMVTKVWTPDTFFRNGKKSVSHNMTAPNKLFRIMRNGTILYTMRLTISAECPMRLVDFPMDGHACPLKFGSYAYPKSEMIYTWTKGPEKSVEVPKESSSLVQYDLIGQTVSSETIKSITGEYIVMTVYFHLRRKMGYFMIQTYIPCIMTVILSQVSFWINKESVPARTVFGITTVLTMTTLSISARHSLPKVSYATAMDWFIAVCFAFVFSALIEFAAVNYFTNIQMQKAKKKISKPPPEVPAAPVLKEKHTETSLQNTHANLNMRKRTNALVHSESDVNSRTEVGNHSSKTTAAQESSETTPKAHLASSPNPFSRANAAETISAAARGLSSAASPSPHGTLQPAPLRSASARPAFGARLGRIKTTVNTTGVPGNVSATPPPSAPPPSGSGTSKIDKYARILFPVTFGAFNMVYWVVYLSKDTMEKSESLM

What is called Ki is the equilibrium dissociation constant of an inhibitor or competing ligand from its target. On to `O=c1c2cnc3ccccc3c2[nH]n1-c1ccccc1`, for which the Ki in test [1] was found to be 8 nM; in test [2], 34.3 nM.

Regarding `CCOC(=O)c1ncc2[nH]c3ccc(OCc4ccccc4)cc3c2c1COC` [NSC_121926], the Ki in test [1] and in test [2] was greater than 10000 nM throughout. For the molecule `CCc1ccc2c(c1)C(=O)N(C)Cc1c(C(=O)OC(C)(C)C)ncn1-2` [DM 286], the Ki worked out at 10 nM in test [1] and 13.5 nM in test [2]. On to `CCOC(=O)c1cc2c(cn1)[nH]c1ccccc12`, for which the Ki in test [2] amounted to 2620 nM. Consider `COc1ccc(-n2[nH]c3c(cnc4cc(OC)ccc43)c2=O)cc1`, for which the values for the Ki in test [1] and in test [2] were 11.6 nM and 23 nM, respectively. In the case of `CN1Cc2c(C(=O)OC(C)(C)C)ncn2-c2ccc(OCc3ccccc3)cc2C1=O` [DM-236], the inhibitory constant (Ki) was 188 nM in test [1] and 1590 nM in test [2]. In the same order, the values of `CN1Cc2c(C(=O)OC(C)(C)C)ncn2-c2ccsc2C1=O` [Ro-19-4603] are 6 nM and 3.6 nM. Turning to `CCOC(=O)c1ncn2c1CN(C)C(=O)c1cc(N=[N+]=[N-])ccc1-2` [RO-154513], the affinity in test [2], expressed as Ki, was 5.3 nM. In other words, the single-digit nanomolar range. As to `CN1Cc2c(C(=O)OC(C)(C)C)ncn2-c2ccc(Cl)cc2C1=O`, the Ki was found to be 9.5 nM in test [1] and 8.2 nM in test [2]. Take `CN1Cc2c(C(=O)OC(C)(C)C)ncn2-c2ccc(N=[N+]=[N-])cc2C1=O`: the inhibition constant Ki in test [1] worked out at 5.2 nM; in test [2], 5.3 nM. For `COc1ccc2ncc3c(=O)n(-c4ccccc4)[nH]c3c2c1`, the inhibitory constant (Ki) in test [1] worked out at 22.5 nM; in test [2], 74.5 nM. For the molecule `CCOC(=O)c1ncn2c1CN(C)C(=O)c1cc(F)ccc1-2` [ethyl 12-fluoro-8-methyl-9-oxo-2,4,8-triazatricyclo[8.4.0.0^{2,6}]tetradeca-1(14),3,5,10,12-pentaene-5-carboxylate], the inhibition constant (Ki) in test [1] is 118 nM. On to `CCc1c(C(=O)OC)ncc2[nH]c3cc(OC)c(OC)cc3c12` [NSC_104999], for which the values for the inhibitory constant (Ki) in test [1] and in test [2] were 38.5 nM and 121 nM, respectively. In the same order, the values of `COC(=O)c1cc2c(cn1)[nH]c1ccccc12` are 436 nM and 2020 nM.

On to `COc1ccc(-n2[nH]c3c(cnc4ccccc43)c2=O)cc1` [2-(4-Methoxy-phenyl)-2,5-dihydro-pyrazolo[4,3-c]quinolin-3-one (CGS 9895)], for which the Ki amounted to 6.8 nM in test [1] and 38.4 nM in test [2].

Consider `O=c1c2cnc3ccccc3c2[nH]n1-c1ccc(Cl)cc1`, for which the inhibition constant (Ki) in test [1] amounted to 214 nM; in test [2], 500 nM. On to `CC(C)(C)OC(=O)c1cc2c(cn1)[nH]c1ccccc12`, for which the inhibition constant (Ki) in test [1] worked out at 897 nM; in test [2], 4750 nM. In the same order, the values of `CCOC(=O)c1ncc2[nH]c3cccc(OCc4ccccc4)c3c2c1COC` [NSC_123700] are 573 nM and 1200 nM.

The record behind these values is BindingDB's records for doi:10.1016/s0028-3908(96)00054-8 (National Institute of Diabetes, Digestive and Kidney …, 1996).
